Data on 20 molecules can be found in patent US4818761A, “2-(4-pyridylaminomethyl)-benzimidazole derivatives having antiviral activity” (priority 1986, dated 1989).

≈ marks a conversion by molar mass, not a printed value.

The subject of series [1] is enterovirus type 70 (EV70). Nature of the series: Inhibition of EV70 plaque formation in LLC-MK2 cells. To be noted: for CI EV70 (C)/(A): CI = CD50 (LLC-MK2)/IC50 (plaque); for IC50: Enterovirus D, plaque reduction, LLC-MK2 cells, 33° C. It is filed as cell-based.
The test system of series [2] is poliovirus type 2 (Polio2). Nature of the series: microbe, parasite or virus in culture. As to conditions: for IC50: Enterovirus C, LLC-MK2, read-out: IC50 Polio2; for CI Polio2 (C)/(A): CI = CD50 (LLC-MK2)/IC50 (plaque). Format: cell-based.
The test system of series [3] is coxsackievirus type B4 (CB4). The series can be described thus: Inhibition of CB4 plaque formation in LLC-MK2 cells. Format: cell-based. As to conditions: for CI CB4 (C)/(A): CI = CD50 (LLC-MK2)/IC50 (plaque); for IC50: Coxsackievirus, plaque reduction, LLC-MK2 cells, 37° C.
For series [4], the system named is rhinovirus type 14 (HRV14). The series can be described thus: Inhibition of HRV14 cytopathogenic effect (CPE) in HeLa cells. Format: cell-based. To be noted: for IC50: Enterovirus, HRV14, * Virus CPE inhibition assay, HeLa cells, 33° C.; for CI HRV14 (D)/(B): CI = CD50 (HeLa)/IC50 (virus CPE).
Series [5] in a line: in vitro. As to conditions: monkey, llc-mk2 cells.
Series [6] in a line: in vitro. To be noted: human, hela cells.
Series [7] has as its system rhinovirus type 14 (HRV14). The series can be described thus: Inhibition of HRV14 plaque formation in HeLa cells. Format: cell-based. As to conditions: for IC50: Enterovirus, HRV14, plaque reduction, HeLa cells, 33° C.
Series [8] concerns CB4 strain 637. Nature of the series: Anti-coxsackievirus activity in vivo, CB4-induced hypoglycemia in SJL/J mice. To be noted: single, daily intraperitoneal doses as low as 20 mg/kg, initiated 2 hr after infection and continued for 5 days. How it is done:
Anti-coxsackievirus activity, in vivo. Compound No. XII and XXI were examined for its activity against CB4-induced hypoglycemia in SJL/J mice. […] Blood specimens were collected from the tail vein of each mouse before and 2, 3, 4 and 5 days after infection for assaying its plasma glucose levels. The differences in mean relative plasma glucose of uninfected control and compound-treated groups or placebo groups were evaluated by Student's t-test.

For series [9], the system named is enterovirus type 70 (EV70). Nature of the series: Inhibition of EV70 cytopathogenic effect (CPE) in LLC-MK2 cells. Format: cell-based. To be noted: for CI EV70 (C)/(A): CI = CD50 (LLC-MK2)/IC50 (virus CPE); for IC50: Enterovirus D, * Virus CPE inhibition assay, LLC-MK2 cells, 33° C. (In general: Damage to the host cells serves as the signal in cytopathic effect assays.)

Series [10] deals with coxsackievirus type B4 (CB4). Nature of the series: Inhibition of CB4 cytopathogenic effect (CPE) in LLC-MK2 cells. It is filed as cell-based. As to conditions: for CI CB4 (C)/(A): CI = CD50 (LLC-MK2)/IC50 (virus CPE); for IC50: Coxsackievirus, * Virus CPE inhibition assay, LLC-MK2 cells, 37° C.
Series [11] is described as follows: Cytotoxicity, morphology of LLC-MK2 cells. To be noted: monkey.
Series [12] is described as follows: Cytotoxicity, morphology of HeLa cells. To be noted: human.

In general, IC50 refers to the concentration that gives 50% inhibition. The CC50 is the concentration at which the toxic effect on the cells reaches its halfway point. On to `Fc1ccccc1-n1c(CNc2ccncc2)nc2ccccc21` [LVII], for which the “CI EV70 (C)/(A)” value in [1] came out at 83. The IC50 in [1] is 24.1 µg/mL (≈ 75.7 µM); in series [2], greater than 100 µg/mL; in series [3], 8.6 µg/mL (≈ 27 µM); in series [4], greater than 100 µg/mL. Also, the “CI CB4 (C)/(A)” value in series [3] came out at 233. In addition, the CC50 was 2000 µg/mL (≈ 6280 µM) in series [5] and greater than 100 µg/mL in series [6].

For the molecule `CCCn1c(CNc2ccncc2)nc2ccccc21` [XII], in series [1], the “CI EV70 (C)/(A)” value is given as greater than 465 and the IC50 was 4.3 µg/mL (≈ 16.1 µM). In series [2], the “CI Polio2 (C)/(A)” value was greater than 556 and the IC50 worked out at 3.6 µg/mL (≈ 13.5 µM). In addition, in series [3], the “CI CB4 (C)/(A)” value is > 4,255 and the IC50 came to 0.47 µg/mL (≈ 1.76 µM). For the same molecule, the IC50 in series [7] was greater than 50 µg/mL. Moreover, in series [8], the “onset of CB4-induced hypoglycemia” value is “inhibited the onset of CB4-induced hypoglycemia”. This molecule also gave a CC50 in series [5] greater than 2000 µg/mL.

For `Cc1ccc2nc(CNc3ccncc3)n(-c3ccccc3)c2c1` [XLIII], in series [9], the “CI EV70 (C)/(A)” value is listed as greater than 6. Moreover, the IC50 was 17.8 µg/mL (≈ 56.6 µM) in series [9], 3.2 µg/mL (≈ 10.2 µM) in [10] and greater than 100 µg/mL in series [4]. Also, the “CI CB4 (C)/(A)” value in series [10] is given as greater than 31. Besides, the CC50 in series [5] and in [6] was greater than 100 µg/mL each time.

With `CCc1ccc2c(c1)nc(CNc1ccncc1)n2C` [XXXVII], the “CI EV70 (C)/(A)” value in series [1] is reported as greater than 5. In addition, the half-maximal inhibitory concentration (IC50) is 22 µg/mL (≈ 82.6 µM) in series [1], greater than 100 µg/mL in series [2], greater than 50 µg/mL in series [3] and 20 µg/mL (≈ 75.1 µM) in series [7]. Moreover, the CC50 in [11] was greater than 100 µg/mL.

Regarding `CCc1ccccc1-n1c(CNc2ccncc2)nc2ccccc21` [LXV], the 50% inhibitory concentration (IC50) in series [9], in [10] and in series [4] was greater than 100 µg/mL throughout. For the same molecule, the CC50 in [5] and in [6] was greater than 100 µg/mL each time.

For `CCc1ccc2nc(CNc3ccncc3)n(-c3ccccc3)c2c1` [XLV], the “CI EV70 (C)/(A)” value in series [1] came out at 35. The IC50 in [1] is 1.6 µg/mL (≈ 4.87 µM); in series [2], greater than 100 µg/mL; in [3] it was 5 µg/mL (≈ 15.2 µM); in series [4], 5.6 µg/mL (≈ 17.1 µM). Also, the “CI CB4 (C)/(A)” value in series [3] came out at 11. Moreover, the “CI HRV14 (D)/(B)” value in series [4] was 10. The CC50 in series [5] and in series [6] was 56.2 µg/mL (≈ 171 µM) in each case.

`COc1cc2nc(CNc3ccncc3)[nH]c2cc1Cl` [XXXIII]: in [9], the “CI EV70 (C)/(A)” value is reported as greater than 2 and half-maximal inhibition (IC50) was put at 56.2 µg/mL (≈ 195 µM). The same molecule yielded a CC50 in series [11] greater than 100 µg/mL.

As to `c1ccc2c(c1)nc(CNc1ccncc1)n2-c1nccs1` [LXXIII], the IC50 in series [9], in series [10] and in series [4] was greater than 100 µg/mL each time. The CC50 in series [5] and in series [6] was greater than 100 µg/mL each time.

For the molecule `Cl.Fc1cccc(-n2c(CNc3ccncc3)nc3ccccc32)c1` [LVIII, 1-(3-fluorophenyl)-2-(4-pyridylaminomethyl)benzimidazole hydrochloride], the “CI EV70 (C)/(A)” value in [1] is greater than 200. Moreover, the IC50 in [1] was 5 µg/mL; in series [2], greater than 100 µg/mL; in series [3] it was 3.6 µg/mL; in series [4] it was greater than 100 µg/mL. Further, the “CI CB4 (C)/(A)” value in [3] was greater than 278. Further, the CC50 was greater than 1000 µg/mL in [5] and greater than 100 µg/mL in series [6].

Consider `CCOc1ccc2[nH]c(CNc3ccncc3)nc2c1` [IV], for which the “CI EV70 (C)/(A)” value in [1] is listed as greater than 3. For the same molecule, the IC50 in series [1] was 39 µg/mL (≈ 145 µM); in series [2] it was 460 µg/mL (≈ 1710 µM); in series [3] it was 93 µg/mL (≈ 347 µM); in [4] it was greater than 100 µg/mL. Also, in [3], the “CI CB4 (C)/(A)” value was greater than 1. Also, the CC50 in series [5] and in series [6] was greater than 100 µg/mL each time.

In the case of `Cn1c(CNc2ccncc2)nc2cc(Cl)ccc21` [XXXVIII], the IC50 was 115 µg/mL (≈ 422 µM) in [1], greater than 100 µg/mL in [2], 56 µg/mL (≈ 205 µM) in series [3] and greater than 50 µg/mL in series [7]. Besides, in [3], the “CI CB4 (C)/(A)” value is greater than 2. The CC50 in [11] is greater than 100 µg/mL.

For `Fc1ccc2nc(CNc3ccncc3)n(-c3ccccc3)c2c1` [XLVIII], the IC50 in series [9] and in [10] was greater than 100 µg/mL in each case. For the same molecule, in series [11], the CC50 was greater than 100 µg/mL.

Regarding `Clc1cc(Cl)c2nc(CNc3ccncc3)[nH]c2c1` [XXVII], the 50% inhibitory concentration (IC50) in [9] is greater than 100 µg/mL; in [4], greater than 17.8 µg/mL. For the same molecule, the results for the CC50 in [5] and in [6] were greater than 100 µg/mL and 17.8 µg/mL (≈ 60.7 µM), respectively.

`CCc1cc2c(cc1Cl)nc(CNc1ccncc1)n2-c1ccccc1` [LXXV, 1-phenyl-2-(4-pyridylaminomethyl)-5-chloro-6-ethylbenzimidazole]: in series [9], the “CI EV70 (C)/(A)” value is greater than 2. Besides, the IC50 is greater than 56.2 µg/mL in [9], greater than 100 µg/mL in [10] and 5.6 µg/mL (≈ 15.4 µM) in series [4]. Further, the “CI HRV14 (D)/(B)” value in series [4] is given as 3. In addition, the CC50 in [5] was greater than 100 µg/mL; in series [6] it was 17.8 µg/mL (≈ 49.1 µM).

For the molecule `CCOCCn1c(CNc2ccncc2)nc2ccccc21` [LIV], the IC50 in series [9], in series [10] and in series [4] was greater than 100 µg/mL throughout. In series [5], this molecule yielded a CC50 greater than 2000 µg/mL.

Turning to `Cc1cc(Cl)cc2[nH]c(CNc3ccncc3)nc12` [XXV], in series [9], the “CI EV70 (C)/(A)” value is 13. In addition, the IC50 in series [9] stood at 56.2 µg/mL (≈ 206 µM); in [4] it was 17.8 µg/mL (≈ 65.3 µM). Further, the CC50 in series [5] amounted to 707 µg/mL (≈ 2590 µM); in [6], 17.8 µg/mL (≈ 65.3 µM).

In the case of `Cc1cc(Cl)c2nc(CNc3ccncc3)[nH]c2c1` [XXVI], the IC50 in series [9] was greater than 100 µg/mL; in series [4] it was greater than 56.2 µg/mL. The CC50 in [5] was determined as 1410 µg/mL (≈ 5180 µM); in [6], 56.2 µg/mL (≈ 206 µM).

For the molecule `Cc1cc2nc(CNc3ccncc3)[nH]c2cc1Br` [XXVIII], in series [1], the “CI EV70 (C)/(A)” value is on record as 88. Moreover, the IC50 in series [1] came to 2 µg/mL (≈ 6.31 µM); in [2] it was 34 µg/mL (≈ 107 µM); in [3] it was 13.5 µg/mL (≈ 42.6 µM); in series [7] it was 3.6 µg/mL (≈ 11.3 µM). The “CI Polio2 (C)/(A)” value in [2] is recorded as 5. The “CI CB4 (C)/(A)” value in series [3] is recorded as 13. In addition, in series [7] (CI = CD50 (HeLa)/IC50 (plaque)), the “CI HRV14 (D)/(B)” value is recorded as 15. The figures for the CC50 in series [12] and in series [11] were 56.2 µg/mL (≈ 177 µM) and 177 µg/mL (≈ 557 µM), respectively.

On to `CCc1ccc2c(c1)nc(CNc1ccncc1)n2-c1ccccc1` [XLIV], for which, in series [9], the “CI EV70 (C)/(A)” value is given as greater than 31 and the IC50 came out at 3.2 µg/mL (≈ 9.74 µM). In series [10], the “CI CB4 (C)/(A)” value is recorded as greater than 15 and the IC50 was 6.8 µg/mL (≈ 20.7 µM). Moreover, in series [4], the “CI HRV14 (D)/(B)” value was greater than 6 and inhibition was half-maximal at 17.8 µg/mL (≈ 54.2 µM) (IC50). In series [5], this molecule yielded a CC50 greater than 100 µg/mL. Moreover, the CC50 in series [6] was greater than 100 µg/mL.

Consider `CC(C)(C)C(=O)Cn1c(CNc2ccncc2)nc2ccccc21` [LIII], for which the IC50 in [9], in series [10] and in [4] was greater than 100 µg/mL in each case. The CC50 in [5] was greater than 2000 µg/mL.
